{"source": "patent US6569640B1", "about": "“Method of fractionation of biologically-derived materials using critical fluids” (Aphios Corporation, priority 1993, dated 2003)", "tested_on": "Bacillus subtilis", "assay": "Antimicrobial disk diffusion assay", "type": "cell-based", "conditions": "disks containing 10 μg", "method": "Microbial extracts were tested for antimicrobial activity by a disk diffusion assay. Diffusion of the metabolites into the agar creates a zone of growth inhibition around the disk if the organism is susceptible to the antimicrobial metabolite. Ten to 20 μl amounts of extract or extract fractions were applied to Whatman 3MM filter paper disks 7 mm in diameter. The disks were dried under vacuum overnight to evaporate the solvent. Bioassays were carried out with the target organism Bacillus subtilis. The target organisms were grown in nutrient broth (Difco), and adjusted to an A600 of 0.1. One hundred μl of the cell suspension was applied to the surface of a nutrient agar plate and spread uniformly with a sterile spreader. After the liquid had absorbed into the agar, the disks were placed on the surface, about 1 cm apart. The plates were incubated at 25-30° C. for 24-36 hours. Antimicrobial activity was indicated by a zone of inhibition around a disk where bacterial growth was prevented. […] In addition, positive and negative control disks were utilized. For the negative control, a disk which received only methanol was run in each test. […] For the positive control, disks containing the antimicrobial gentamycin (10 μg) were used."}
{"substance": "gentamycin", "values": [{"measurement": "zone of inhibition, positive control disk", "result": "showed zones of inhibition"}]}
